Data: patent publication US10927123B2, “Modulators of the beta-3 adrenergic receptor useful for the treatment or prevention of disorders related thereto” (Arena Pharmaceuticals, Inc., priority 2016, dated 2021)

Molecular target: Beta-3 Adrenergic Receptor (Homo sapiens (Human), UniProt P13945)
Assay: HTRF cAMP antagonist assay (IC50 determination)
Type: cell-based
Settings: CHO-K1 cells stably expressing recombinant receptor; antagonism of isoproterenol at EC90; cAMP readout
Outline: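 In this functional readout, recombinant CHO-K1 cells received compound, then isoproterenol at its EC90. After 1 h at room temperature, cAMP levels were determined by HTRF using an on-plate standard curve, and IC50 values were fitted.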

Sequence of Beta-3 Adrenergic Receptor (P13945 whole entry, species assumed): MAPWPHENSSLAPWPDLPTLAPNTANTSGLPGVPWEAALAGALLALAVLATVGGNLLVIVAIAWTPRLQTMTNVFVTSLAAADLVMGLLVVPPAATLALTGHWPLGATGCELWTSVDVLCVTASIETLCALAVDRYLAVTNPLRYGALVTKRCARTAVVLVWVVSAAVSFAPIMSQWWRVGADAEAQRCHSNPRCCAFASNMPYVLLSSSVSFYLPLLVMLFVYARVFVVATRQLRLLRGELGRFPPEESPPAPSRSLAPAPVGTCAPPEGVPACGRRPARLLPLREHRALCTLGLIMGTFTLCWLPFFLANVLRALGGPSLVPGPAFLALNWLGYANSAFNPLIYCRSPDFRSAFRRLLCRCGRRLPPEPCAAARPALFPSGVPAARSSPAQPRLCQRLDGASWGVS

SMILES	IC50 [nM]
CS(=O)(=O)c1cccc(OC[C@@H](O)CN[C@H]2COC3(CCN(S(=O)(=O)c4ccc5ncccc5c4)CC3)C2)c1 [Compound 111, (S)-1-(3-(methylsulfonyl)phenoxy)-3-((R)-8-(quinolin-6-ylsulfonyl)-1-oxa-8-azaspiro[4.5]decan-3-ylamino)propan-2-ol]	31.1
CCS(=O)(=O)c1cccc(OC[C@@H](O)CN[C@H]2COC3(CCN(S(=O)(=O)c4ccc5ncccc5c4)CC3)C2)c1 [Compound 112, (S)-1-(3-(ethylsulfonyl)phenoxy)-3-((R)-8-(quinolin-6-ylsulfonyl)-1-oxa-8-azaspiro[4.5]decan-3-ylamino)propan-2-ol]	39.5
CC(C)S(=O)(=O)c1cccc(OC[C@@H](O)CN[C@H]2COC3(CCN(S(=O)(=O)c4ccc5ncccc5c4)CC3)C2)c1 [Compound 113, (S)-1-(3-(isopropylsulfonyl)phenoxy)-3-((R)-8-(quinolin-6-ylsulfonyl)-1-oxa-8-azaspiro[4.5]decan-3-ylamino)propan-2-ol]	26.8
O=S(=O)(c1cccc(OC[C@@H](O)CN[C@H]2COC3(CCN(S(=O)(=O)c4ccc5ncccc5c4)CC3)C2)c1)C1CCC1 [Compound 114, (S)-1-(3-(cyclobutylsulfonyl)phenoxy)-3-((R)-8-(quinolin-6-ylsulfonyl)-1-oxa-8-azaspiro[4.5]decan-3-ylamino)propan-2-ol]	52
CCCS(=O)(=O)c1cccc(OC[C@@H](O)CN[C@H]2COC3(CCN(S(=O)(=O)c4ccc5ncccc5c4)CC3)C2)c1 [Compound 115, (S)-1-(3-(propylsulfonyl)phenoxy)-3-((R)-8-(quinolin-6-ylsulfonyl)-1-oxa-8-azaspiro[4.5]decan-3-ylamino)propan-2-ol]	120
CC(C)CS(=O)(=O)c1cccc(OC[C@@H](O)CN[C@H]2COC3(CCN(S(=O)(=O)c4ccc5ncccc5c4)CC3)C2)c1 [Compound 116, (S)-1-(3-(isobutylsulfonyl)phenoxy)-3-((R)-8-(quinolin-6-ylsulfonyl)-1-oxa-8-azaspiro[4.5]decan-3-ylamino)propan-2-ol]	320
O=S(=O)(CC1CC1)c1cccc(OC[C@@H](O)CN[C@H]2COC3(CCN(S(=O)(=O)c4ccc5ncccc5c4)CC3)C2)c1 [Compound 117, (S)-1-(3-(cyclopropylmethylsulfonyl)phenoxy)-3-((R)-8-(quinolin-6-ylsulfonyl)-1-oxa-8-azaspiro[4.5]decan-3-ylamino)propan-2-ol]	172
CS(=O)(=O)c1cccc(OC[C@@H](O)CN[C@H]2COC3(CCN(S(=O)(=O)c4cnc5ccccc5c4)CC3)C2)c1 [Compound 118, (S)-1-(3-(methylsulfonyl)phenoxy)-3-((R)-8-(quinolin-3-ylsulfonyl)-1-oxa-8-azaspiro[4.5]decan-3-ylamino)propan-2-ol]	10.4
CC(C)S(=O)(=O)c1cccc(OC[C@@H](O)CN[C@H]2COC3(CCN(S(=O)(=O)c4cnc5ccccc5c4)CC3)C2)c1 [Compound 119, (S)-1-(3-(isopropylsulfonyl)phenoxy)-3-((R)-8-(quinolin-3-ylsulfonyl)-1-oxa-8-azaspiro[4.5]decan-3-ylamino)propan-2-ol]	11.6
Cc1cccc(-c2cccc(S(=O)(=O)N3CCC4(CC3)C[C@H](NC[C@H](O)COc3cccc(S(=O)(=O)CCO)c3)CO4)c2)n1 [Compound 120, (5)-1-(3-(2-hydroxyethylsulfonyl)phenoxy)-3-((S)-8-(3-(6-methylpyridin-2-yl)phenylsulfonyl)-1-oxa-8-azaspiro[4.5]decan-3-ylamino)propan-2-ol]	177
O=S(=O)(CCCO)c1cccc(OC[C@@H](O)CN[C@H]2COC3(CCN(S(=O)(=O)c4ccc5ncccc5c4)CC3)C2)c1 [Compound 121, 3-(3-((S)-2-hydroxy-3-((R)-8-(quinolin-6-ylsulfonyl)-1-oxa-8-azaspiro[4.5]decan-3-ylamino)propoxy)phenylsulfonyl)propan-1-ol]	562
